Measurements from US5292733A, “Cephalosporin compounds” (Lucky Limited, priority 1991, dated 1994).
In brackets after ≈: the same amount, converted by molar mass.

Legend:
Experiment in all cases: Antibacterial activity MIC, two-fold agar dilution
Assay type in all cases: cell-based
[1] = tested on: Escherichia coli ATCC 10536; settings: ATCC10536, Muller-Hinton agar, 37° C., 20 hours
Experimental: (§1) These MIC values were taken by employing a two-fold dilution method: that is, two-fold serial dilutions of each of the test compounds were made and dispersed in a Muller-Hinton agar medium; 2 μl of the standard test strain which had the 10^7 CFU(Colony Forming Unit) per ml was inoculated on the medium; and these were incubated at 37° C. for 20 hours. The results of the MIC tests are shown Table 1.

[2] = tested on: Pseudomonas aeruginosa ATCC 10145; settings: ATCC10145; Pseudomonas aeruginosa ATCC 10145; Muller-Hinton agar, 37° C., 20 hours; read-out: Antibacterial Activity MIC
Experimental: as §1

[3] = tested on: Acinetobacter calcoaceticus ATCC 15473; settings: ATCC15473; Acinetobacter calcoaceticus ATCC 15473; Muller-Hinton agar, 37° C., 20 hours; read-out: Antibacterial Activity MIC
Experimental: as §1

[4] = tested on: Providencia rettgeri ATCC 9250; settings: ATCC9250, Muller-Hinton agar, 37° C., 20 hours
Experimental: as §1

[5] = tested on: Streptococcus faecalis ATCC 29212; settings: Enterococcus faecalis, ATCC29212; Streptococcus faecalis ATCC 29212; Muller-Hinton agar, 37° C., 20 hours; read-out: Antibacterial Activity MIC
Experimental: as §1

[6] = tested on: Enterobacter cloacae ATCC 27508; settings: ATCC27508; Enterobacter cloacae ATCC 27508; Muller-Hinton agar, 37° C., 20 hours; read-out: Antibacterial Activity MIC
Experimental: as §1

[7] = tested on: Staphylococcus epidermidis ATCC 12228; settings: ATCC12228; Staphylococcus epidermidis ATCC 12228; Muller-Hinton agar, 37° C., 20 hours; read-out: Antibacterial Activity MIC
Experimental: as §1

[8] = tested on: Proteus vulgaris ATCC 6059; settings: ATCC6059; Proteus vulgaris ATCC 6059; Muller-Hinton agar, 37° C., 20 hours; read-out: Antibacterial Activity MIC
Experimental: as §1

[9] = tested on: Serratia marcescens ATCC 27117; settings: ATCC27117; Serratia marcescens ATCC 27117; Muller-Hinton agar, 37° C., 20 hours; read-out: Antibacterial Activity MIC
Experimental: as §1

[10] = tested on: Micrococcus luteus ATCC 9341; settings: ATCC9341; Micrococcus luteus ATCC 9341; Muller-Hinton agar, 37° C., 20 hours; read-out: Antibacterial Activity MIC
Experimental: as §1

[11] = tested on: Escherichia coli ATCC 25922; settings: ATCC25922, Muller-Hinton agar, 37° C., 20 hours
Experimental: as §1

[12] = tested on: Shigella flexneri ATCC 11836; settings: ATCC11836, Muller-Hinton agar, 37° C., 20 hours
Experimental: as §1

[13] = tested on: Enterobacter aerogenes ATCC 29751; settings: Klebsiella aerogenes, ATCC29751; Enterobacter aerogenes ATCC 29751; Muller-Hinton agar, 37° C., 20 hours; read-out: Antibacterial Activity MIC
Experimental: as §1

[14] = tested on: Bacillus megaterium ATCC 9885; settings: Priestia megaterium, ATCC9885; Bacillus megaterium ATCC 9885; Muller-Hinton agar, 37° C., 20 hours; read-out: Antibacterial Activity MIC
Experimental: as §1

[15] = tested on: Klebsiella pneumoniae ATCC 10031; settings: ATCC10031; Klebsiella pneumoniae ATCC 10031; Muller-Hinton agar, 37° C., 20 hours; read-out: Antibacterial Activity MIC
Experimental: as §1

[16] = tested on: Shigella sonnei ATCC 11060; settings: ATCC11060, Muller-Hinton agar, 37° C., 20 hours
Experimental: as §1

[17] = tested on: Bacillus cereus ATCC 11778; settings: ATCC11778; Bacillus cereus ATCC 11778; Muller-Hinton agar, 37° C., 20 hours; read-out: Antibacterial Activity MIC
Experimental: as §1

[18] = tested on: Pseudomonas aeruginosa ATCC 25619; settings: ATCC25619; Pseudomonas aeruginosa ATCC 25619; Muller-Hinton agar, 37° C., 20 hours; read-out: Antibacterial Activity MIC
Experimental: as §1

[19] = tested on: Citrobacter freundii ATCC 8090; settings: ATCC8090; Citrobacter freundii ATCC 8090; Muller-Hinton agar, 37° C., 20 hours; read-out: Antibacterial Activity MIC
Experimental: as §1

[20] = tested on: Staphylococcus aureus ATCC 10537; settings: ATCC10537; Staphylococcus aureus ATCC 10537; Muller-Hinton agar, 37° C., 20 hours; read-out: Antibacterial Activity MIC
Experimental: as §1

[21] = tested on: Salmonella typhimurium ATCC 14028; settings: Salmonella enterica; Salmonella typhimurium ATCC 14028; Muller-Hinton agar, 37° C., 20 hours; read-out: Antibacterial Activity MIC
Experimental: as §1

[22] = tested on: Morganella morganii ATCC 8076h; settings: ATCC8076H, Muller-Hinton agar, 37° C., 20 hours
Experimental: as §1

[23] = tested on: Proteus mirabilis ATCC 25933; settings: ATCC25933; Proteus mirabilis ATCC 25933; Muller-Hinton agar, 37° C., 20 hours; read-out: Antibacterial Activity MIC
Experimental: as §1

[24] = tested on: Pseudomonas aeruginosa ATCC 27853; settings: ATCC27853; Pseudomonas aeruginosa ATCC 27853; Muller-Hinton agar, 37° C., 20 hours; read-out: Antibacterial Activity MIC
Experimental: as §1

[25] = tested on: Staphylococcus aureus ATCC 6538p; settings: ATCC6538P; Staphylococcus aureus ATCC 6538p; Muller-Hinton agar, 37° C., 20 hours; read-out: Antibacterial Activity MIC
Experimental: as §1

SMILES | MIC [1] [µg/mL] | MIC [2] [µg/mL] | MIC [3] [µg/mL] | MIC [4] [µg/mL] | MIC [5] [µg/mL] | MIC [6] [µg/mL] | MIC [7] [µg/mL] | MIC [8] [µg/mL] | MIC [9] [µg/mL] | MIC [10] [µg/mL] | MIC [11] [µg/mL] | MIC [12] [µg/mL] | MIC [13] [µg/mL] | MIC [14] [µg/mL] | MIC [15] [µg/mL] | MIC [16] [µg/mL] | MIC [17] [µg/mL] | MIC [18] [µg/mL] | MIC [19] [µg/mL] | MIC [20] [µg/mL] | also measured
C#CCO/N=C(\C(=O)N[C@@H]1C(=O)N2C(C(=O)[O-])=C(CSc3cc(N)[n+](C)c(N)n3)CS[C@H]12)c1csc(N)n1 [Compound I-14, (6R,7R)-7-[(Z)-2-(2-aminothiazol-4-yl)-2-(2-propyn-1-oxyimino)acetamido]-3-(2,6-diamino-1-methylpyrimidinium-4-yl)thiomethyl-3-cephem-4-carboxylate] | 0.5 (≈ 0.869 µM) | 8 (≈ 13.9 µM) | 8 (≈ 13.9 µM) | ≤ 0.008 | 16 (≈ 27.8 µM) | 0.016 (≈ 0.0278 µM) | 0.25 (≈ 0.434 µM) | 1 (≈ 1.74 µM) | 0.5 (≈ 0.869 µM) | 0.031 (≈ 0.0539 µM) | 0.25 (≈ 0.434 µM) | 0.063 (≈ 0.109 µM) | 0.5 (≈ 0.869 µM) | 0.25 (≈ 0.434 µM) | 0.016 (≈ 0.0278 µM) | 0.5 (≈ 0.869 µM) | 64 (≈ 111 µM) | 1 (≈ 1.74 µM) | 0.25 (≈ 0.434 µM) | 0.5 (≈ 0.869 µM) | MIC [21]: 0.25 µg/mL (≈ 0.434 µM); MIC [22]: 0.016 µg/mL (≈ 0.0278 µM); MIC [23]: 1 µg/mL (≈ 1.74 µM); MIC [24]: 4 µg/mL (≈ 6.95 µM); MIC [25]: 0.5 µg/mL (≈ 0.869 µM)
C#CCO/N=C(\C(=O)N[C@@H]1C(=O)N2C(C(=O)[O-])=C(CSc3cc(N)[n+](CC)c(N)n3)CS[C@H]12)c1csc(N)n1 [Compound I-15, (6R,7R)-7-[(Z)-2-(2-aminothiazol-4-yl)-2-(2-propyn-1-oxyimino)acetamido]-3-(2,6-diamino-1-ethylpyrimidinium-4-yl)thiomethyl-3-cephem-4-carboxylate] | 0.25 (≈ 0.424 µM) | 8 (≈ 13.6 µM) | 8 (≈ 13.6 µM) | ≤ 0.008 | 16 (≈ 27.1 µM) | 0.031 (≈ 0.0526 µM) | 0.25 (≈ 0.424 µM) | 1 (≈ 1.7 µM) | 0.5 (≈ 0.848 µM) | 0.031 (≈ 0.0526 µM) | 0.5 (≈ 0.848 µM) | 0.13 (≈ 0.22 µM) | 1 (≈ 1.7 µM) | 0.25 (≈ 0.424 µM) | 0.016 (≈ 0.0271 µM) | 0.5 (≈ 0.848 µM) | 32 (≈ 54.3 µM) | 1 (≈ 1.7 µM) | 0.25 (≈ 0.424 µM) | 0.5 (≈ 0.848 µM) | MIC [21]: 0.5 µg/mL (≈ 0.848 µM); MIC [22]: 0.016 µg/mL (≈ 0.0271 µM); MIC [23]: 0.5 µg/mL (≈ 0.848 µM); MIC [24]: 4 µg/mL (≈ 6.78 µM); MIC [25]: 0.5 µg/mL (≈ 0.848 µM)
C[n+]1c(N)cc(SCC2=C(C(=O)[O-])N3C(=O)[C@@H](NC(=O)/C(=N\OCC(=O)O)c4csc(N)n4)[C@H]3SC2)nc1N [Compound I-17, (6R,7R)-7-[(Z)-2-(2-aminothiazol-4-yl)-2-(carboxymethoxyimino)acetamido]-3-(2,6-diamino-1-methylpyrimidinium-4-yl)thiomethyl-3-cephem-4-carboxylate] | 0.031 (≈ 0.052 µM) | 4 (≈ 6.72 µM) | 16 (≈ 26.9 µM) | ≤ 0.008 | > 128 | 0.016 (≈ 0.0269 µM) | 2 (≈ 3.36 µM) | 0.063 (≈ 0.106 µM) | 0.063 (≈ 0.106 µM) | 1 (≈ 1.68 µM) | 0.016 (≈ 0.0269 µM) | 0.016 (≈ 0.0269 µM) | 1 (≈ 1.68 µM) | 0.5 (≈ 0.839 µM) | 0.031 (≈ 0.052 µM) | 0.031 (≈ 0.052 µM) | > 128 | 1 (≈ 1.68 µM) | 0.031 (≈ 0.052 µM) | 4 (≈ 6.72 µM) | MIC [21]: 0.063 µg/mL (≈ 0.106 µM); MIC [22]: ≤ 0.008 µg/mL; MIC [23]: 0.031 µg/mL (≈ 0.052 µM); MIC [24]: 2 µg/mL (≈ 3.36 µM); MIC [25]: 8 µg/mL (≈ 13.4 µM)
